From patent publication US9062026B2, “Fused pyrimidines and substituted quinazolines as inhibitors of p97” (Cleave Biosciences, Inc., priority 2012, dated 2015)
Read-outs that look alike come from different tables or passages of the source.

Biological target: p97 (Homo sapiens (Human), UniProt P55072)
Assay: P97 ATPase biochem assay (ADP Glo)
Type: biochemical
Protocol: The ATPase assay is performed according the following protocol: Purified enzyme (20 nM p97), substrate (20 μM ATP) and a dose titration of compounds are mixed in buffer (50 mM TRIS pH 7.5, 20 mM MgCl2, 0.02% TX-100, 1 mM DTT, 0.2% (v/v) glycerol) and incubated at 37° C. for 15 minutes. The reaction is terminated and the level of product generated is measured using the ADP Glo Assay Kit (Promega, Madison Wis.). Plotting product generated versus compound concentration and using a four-parameter fit model generates an IC50 value for each compounds.

[1] = 20 nM p97, 20 μM ATP, 37° C., 15 minutes, read-out: p97 biochem IC50

Sequence of p97 (P55072 whole entry): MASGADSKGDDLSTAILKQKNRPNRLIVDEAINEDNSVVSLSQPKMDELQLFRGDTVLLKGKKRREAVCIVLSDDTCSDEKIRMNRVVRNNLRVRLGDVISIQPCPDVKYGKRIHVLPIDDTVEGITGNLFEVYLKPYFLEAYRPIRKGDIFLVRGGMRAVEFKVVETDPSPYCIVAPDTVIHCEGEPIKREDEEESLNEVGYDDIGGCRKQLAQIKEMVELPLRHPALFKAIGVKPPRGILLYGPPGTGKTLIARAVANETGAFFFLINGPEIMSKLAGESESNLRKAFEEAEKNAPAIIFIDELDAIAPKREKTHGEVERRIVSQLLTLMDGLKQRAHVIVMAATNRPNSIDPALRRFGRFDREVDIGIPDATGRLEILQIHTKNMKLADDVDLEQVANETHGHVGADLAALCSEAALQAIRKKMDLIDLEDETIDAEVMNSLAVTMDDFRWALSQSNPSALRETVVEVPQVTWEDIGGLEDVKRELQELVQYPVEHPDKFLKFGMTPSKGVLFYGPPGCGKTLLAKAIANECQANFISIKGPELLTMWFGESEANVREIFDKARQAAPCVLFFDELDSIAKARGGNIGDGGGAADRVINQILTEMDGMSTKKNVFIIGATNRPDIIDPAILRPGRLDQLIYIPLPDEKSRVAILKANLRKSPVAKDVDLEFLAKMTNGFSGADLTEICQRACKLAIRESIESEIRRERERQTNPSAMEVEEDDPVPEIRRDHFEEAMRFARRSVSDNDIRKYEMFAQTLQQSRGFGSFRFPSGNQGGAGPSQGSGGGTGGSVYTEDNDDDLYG

SMILES	IC50 (read-out: p97 IC50) [µM]	IC50 [1] [µM]
COCCOc1cccc2c(NCc3ccccc3)nc(-n3c(CO)nc4ccccc43)nc12 [{1-[4-(benzylamino)-8-(2-methoxyethoxy)quinazolin-2-yl]-1H-1,3-benzodiazol-2-yl}methanol]	< 0.3	–
C#CC(=O)NCc1cc2ccccc2n1-c1nc2c(c(NCc3ccccc3)n1)CCCC2 [N-({1-[4-(benzylamino)-5,6,7,8-tetrahydroquinazolin-2-yl]-1H-indol-2-yl}methyl)prop-2-ynamide]	< 0.1	–
CN(C)Cc1cccc2c(NCc3ccccc3)nc(-n3c(N)nc4ccccc43)nc12	–	< 25
c1ccc(CNc2nc(-n3c(CN4CCOCC4)cc4ccccc43)nc3c2CCCC3)cc1 [N-benzyl-2-[2-(morpholin-4-ylmethyl)-1H-indol-1-yl]-5,6,7,8-tetrahydroquinazolin-4-amine]	< 0.3	–
c1ccc(CNc2nc(-n3c(N4CCOCC4)nc4ccccc43)nc3c2CCCC3)cc1 [N-benzyl-2-[2-(morpholin-4-yl)-1H-1,3-benzodiazol-1-yl]-5,6,7,8-tetrahydroquinazolin-4-amine]	< 0.3	–
CNCCN1CCc2c(nc(-n3c(CN)cc4ccccc43)nc2NCc2ccccc2)C1	–	< 10
COc1cccc2c(NCc3ccccc3)nc(-n3c(C)nc(C)c3C)nc12	–	< 25
COCCOc1cccc2c(NCc3ccccc3)nc(-n3c(C)cc4c(C#N)cccc43)nc12 [1-[4-(benzylamino)-8-(2-methoxyethoxy)quinazolin-2-yl]-2-methyl-1H-indole-4-carbonitrile]	< 0.03	–
Cc1[nH]c2ccccc2c1-c1nc2c(c(NCc3ccccc3)n1)CCCC2 [N-benzyl-2-(2-methyl-1H-indol-3-yl)-5,6,7,8-tetrahydroquinazolin-4-amine]	< 0.3	–
COc1cccc2c(NCc3ccccc3)nc(Nc3ccccn3)nc12	–	< 10
COc1cccc2c(NCc3ccccc3)nc(C(C)c3ccccc3)nc12 (centres unmarked)	–	< 10
Cc1cc2ccccc2n1-c1nc2c(c(NCc3ccccc3)n1)COCC2 [N-benzyl-2-(2-methyl-1H-indol-1-yl)-5H,7H,8H-pyrano[4,3-d]pyrimidin-4-amine]	< 0.3	–
COc1cccc2c(NCc3ccccc3)nc(-n3c(N)nc4cccc(F)c43)nc12	–	< 10
COc1cccc2c(NCc3ccccc3)nc(N3c4ccccc4CC3C)nc12 (centres unmarked)	–	< 5
CCN1CCc2nc(-n3c(C)cc4c(C#N)cccc43)nc(NCc3ccccc3)c2C1 [1-[4-(benzylamino)-6-ethyl-5H,6H,7H,8H-pyrido[4,3-d]pyrimidin-2-yl]-2-methyl-1H-indole-4-carbonitrile]	< 0.1	–
CCC1=NC(C)=C(C)C1c1nc(NCc2ccccc2)c2cccc(OC)c2n1 (centres unmarked)	–	< 25
COc1cccc2c(NCc3ccccc3)nc(C3c4ccccc4CN3C)nc12 (centres unmarked)	–	< 10
COc1cccc2c(NCc3ccccc3)nc(-n3cc(C)c4ccccc43)nc12	–	< 10
COCC(=O)N1CCc2nc(-n3c(C)cc4c(C#N)cccc43)nc(NCc3ccccc3)c2C1 [1-[4-(benzylamino)-6-(2-methoxyacetyl)-5H,6H,7H,8H-pyrido[4,3-d]pyrimidin-2-yl]-2-methyl-1H-indole-4-carbonitrile]	< 0.03	–
COCCOc1cccc2c(NCc3ccccc3)nc(-n3c(OC)cc4c(C#N)cccc43)nc12 [1-[4-(benzylamino)-8-(2-methoxyethoxy)quinazolin-2-yl]-2-methoxy-1H-indole-4-carbonitrile]	< 0.1	–
Cc1cc2c(C#N)cccc2n1-c1nc2c(c(NCc3ccccc3)n1)CCCC2 [1-[4-(benzylamino)-5,6,7,8-tetrahydroquinazolin-2-yl]-2-methyl-1H-indole-4-carbonitrile]	< 0.1	–
OCc1nc2ccccc2n1-c1nc2c(c(NCc3ccccc3)n1)CCCC2 [{1-[4-(benzylamino)-5,6,7,8-tetrahydroquinazolin-2-yl]-1H-1,3-benzodiazol-2-yl}methanol]	< 0.3	–
COc1cccc2c(NCc3ccccc3)nc(CCC(C)C)nc12	–	< 10
Cc1nc2ccccc2n1-c1nc2c(c(NCc3ccccc3)n1)CCCC2 [N-benzyl-2-(2-methyl-1H-1,3-benzodiazol-1-yl)-5,6,7,8-tetrahydroquinazolin-4-amine]	< 0.3	–

Further lines, results first:

IC50 (read-out: p97 IC50) [µM]	IC50 [1] [µM]	SMILES
–	< 2	NCc1cc2ccccc2n1-c1nc2c(c(NCc3ccccc3)n1)CCCC2 [drawing 219]
–	< 2	Cc1cc2ccccc2n1-c1nc2c(c(NCc3ccccc3)n1)CCN(C(=O)OC(C)(C)C)C2
–	< 5	CCc1cc2ccccc2n1-c1nc2c(c(NCc3ccccc3)n1)CCCC2
–	< 2	COc1cccc2c(NCc3ccccc3)nc(C3CNc4ccccc43)nc12 (centres unmarked)
–	< 2	COC(=O)N1CCc2c(nc(-n3c(CN)cc4ccccc43)nc2NCc2ccccc2)C1
–	< 2	Cc1cc2ccccc2n1-c1nc2c(c(NCc3ccccc3)n1)CCCC2
–	< 2	Cc1cc2ccccc2n1-c1nc2c(c(NCc3ccccc3)n1)CCNC2
–	< 2	Cc1cc2ccccc2n1-c1nc2c(c(NCc3ccccc3)n1)CNC2
–	< 2	CC(=O)NCc1cc2ccccc2n1-c1nc2c(c(NCc3ccccc3)n1)CCCC2 [drawing 230]
–	< 2	COc1cccc2c(NCc3ccccc3)nc(-n3c(/C=C/C#N)cc4ccccc43)nc12 [drawing 242]
–	< 2	COCCOc1cccc2c(NCc3ccccc3)nc(-n3c(N)nc4ccccc43)nc12
–	< 5	COc1cccc2c(NCc3ccccc3)nc(-n3c(=O)n(C)c4ccccc43)nc12
–	< 2	NCc1cc2ccccc2n1-c1cc(NCc2ccccc2)c2c(n1)CN(C(N)=O)CC2
–	< 2	COc1cccc2c(NCc3ccccc3)nc(-c3c(N)[nH]c4ccccc34)nc12
–	< 2	COCc1cccc2c(NCc3ccccc3)nc(-n3c(N)nc4ccccc43)nc12
–	< 2	Cc1cc2ccccc2n1-c1nc2c(c(NCc3ccccc3)n1)COC2

IC50 (read-out: p97 IC50) [µM]	IC50 [1] [µM]	SMILES
–	< 2	OCc1cc2ccccc2n1-c1nc2c(c(NCc3ccccc3)n1)CCCC2 [drawing 227]
–	< 2	CS(=O)(=O)N1CCc2c(nc(-n3c(CN)cc4ccccc43)nc2NCc2ccccc2)C1
–	< 5	COc1cccc2c(NCc3ccccc3)nc(C3NCc4ccccc43)nc12 (centres unmarked)
–	< 5	COc1nc2ccccc2n1-c1nc(NCc2ccccc2)c2c(n1)C(=O)NCC2
–	< 2	C=CC(=O)NCc1cc2ccccc2n1-c1nc(NCc2ccccc2)c2cccc(OC)c2n1
–	< 2	COc1cccc2c(NCc3ccccc3)nc(-c3c(C)oc4ccccc34)nc12
–	< 2	CC(=O)N1Cc2nc(-n3c(C)cc4ccccc43)nc(NCc3ccccc3)c2C1
–	< 2	Cc1cc2ccccc2n1-c1nc(NCc2ccccc2)c2cccc(C(N)=O)c2n1
–	< 2	Nc1nc2ccccc2n1-c1nc2c(c(NCc3ccccc3)n1)CCC2
–	< 2	COc1cc2ccccc2n1-c1nc(NCc2ccccc2)c2c(n1)C(=O)N(C(=O)OC(C)(C)C)CC2
–	< 2	CC(=O)C1CCc2c(nc(-n3c(CN)cc4ccccc43)nc2NCc2ccccc2)C1 (centres unmarked)
–	< 2	COc1cccc2c(NCc3ccccc3)nc(-n3c(N(C)C)nc4ccccc43)nc12
–	< 2	COc1cccc2c(NCc3ccccc3)nc(-n3c(CNC(C)=O)cc4ccccc43)nc12 [drawing 223]
–	< 2	COc1cccc2c(NCc3ccccc3)nc(-n3c(=O)[nH]c4ccccc43)nc12
–	< 2	COc1cccc2c(NCc3ccccc3)nc(-n3ccc4ccccc43)nc12
–	< 2	CCc1nc2ccccc2n1-c1nc(NCc2ccccc2)c2cccc(OC)c2n1
